What was measured:
[1] = Inhibition of human TREX1 exonuclease activity using labeled DNA oligonucleotide as substrate incubated for 30 mins and measured after 45 mins by fluorescence assay
[2] = Inhibition of mouse TREX1 exonuclease activity using labeled DNA oligonucleotide as substrate incubated for 30 mins and measured after 45 mins by fluorescence assay
[3] = species on record: Homo sapiens; experiment: Binding affinity to recombinant human TREX1 incubated in PBS and measured by thermal shift binding assay; note: test concentration or dose not given here
[4] = species on record: Homo sapiens; experiment: Binding affinity to recombinant human TREX1 incubated in assay buffer and measured by thermal shift binding assay; note: test concentration or dose not given here
[5] = species on record: Mus musculus; experiment: Binding affinity to recombinant mouse TREX1 incubated in PBS and measured by thermal shift binding assay; note: test concentration or dose not given here
[6] = species on record: Mus musculus; experiment: Binding affinity to recombinant mouse TREX1 incubated in assay buffer and measured by thermal shift binding assay; note: test concentration or dose not given here

Row | Structure (SMILES) | IC50 [1] | IC50 [2] | ΔTm [3] | ΔTm [4] | ΔTm [5] | ΔTm [6]
1 | N[C@@H]1C[C@H]2C(=O)N([C@H](Cc3ccc(O)cc3)C(=O)NCc3ccc(Cl)c(Cl)c3)CCC(CCc3ccccc3)N2C1 (stereo partly drawn) | < 1000 nM | < 1000 nM | > 8 °C | > 8 °C | 4 °C | 4 °C
2 | CC(C)C[C@H](C(=O)NCc1ccc(Cl)c(Cl)c1)N1CCC(CCc2ccccc2)N2C[C@H](N)C[C@H]2C1=O (stereo partly drawn) | < 1000 nM | < 1000 nM | > 8 °C | > 8 °C | 4 °C | 4 °C
3 | N[C@@H]1C[C@H]2C(=O)N([C@H](CO)C(=O)NCc3ccc(Cl)c(Cl)c3)CCC(CCc3ccccc3)N2C1 (stereo partly drawn) | < 1000 nM | < 1000 nM | > 8 °C | > 8 °C | 4 °C | 4 °C
